Reference: patent US20110070326A1, “OREGANO EXTRACT AND ITS COMPONENTS FOR ENHANCING VIGILANCE” (DSM IP ASSETS B.V., priority 2006, published 2011)
“And” between values parts separate entries of the source, which are not always exact repeats. Equal entries are not always repeated.

Key:
[1] = Plasma level of free and total carvacrol after oral oregano extract 4 (LC/MS/MS); assay type: in vivo, rat; conditions: individual animals
Procedure: 4 male and 4 female rats received a single dose of 800 mg of oregano extract 4 per kg body weight by oral gavage, respectively. The application solution was prepared in corn oil at a concentration of 200 mg extract per gram formulation.
The sample analysis was performed with a liquid chromatography—tandem mass spectrometry (LC/MS/MS) system, using a column switching system for online cleaning and desalting of the samples.
After addition of internal standard (D2-thymol) and protein precipitation (in case of “free” analyte) or pre-digesting by β-glucuronidase followed by protein precipitation (in case of “total” analyte), the samples were injected on a Waters XTerra™ MS C18 guard-column used as purification column, then transferred onto a Waters XTerra™ C18 column. Detection was performed using tandem mass spectrometry in MRM mode.
Calibration and quality control samples were prepared in 5% Albumin bovine serum solution and human plasma.

mouse = experiment: Light Dark Box Test in the mouse; assay type: in vivo; conditions: 16 mg/kg i.p. −30 min; for NUMBER OF CROSSINGS mean ± s.e.m. / TIME SPENT IN LIGHT COMPARTMENT (s) mean ± s.e.m.: 3-minute test, 15 mice
From the text: The method, which detects anxiolytic activity, follows that described by Crawley, 1981 Pharmacol. Biochem. Behav., 15: 695-699. Anxiolytics increase the time spent in the light compartment.
Animals were placed into the light compartment of a 2-compartment box with one half light and open (25×27×27 cm) and the other half dark and closed (20×27×27 cm). The time spent in each compartment, as well as the number of times the animal crosses from one side to the other, is scored during a 3-minute test. 15 mice were studied per group. The test was performed blind.
Oregano extract 1 was evaluated at 3 doses (10, 30 and 60 mg/kg), administered i.p. 30 minutes before the test, and compared with a vehicle control group. Oregano extract 1 was dissolved in a saline solution containing 3% (v/v) DMSO and 3% (v/v) Tween® 80 (“vehicle”). The control group was administered vehicle, venlafaxine (16 mg/kg i.p) was used as comparison substance and clobazam (16 mg/kg i.p) was used as reference substance, all being administered i.p., 30 minutes prior to the test.

[2] = system: hippocampal serotonin (5HT) levels; experiment: Hippocampal serotonin levels by in vivo microdialysis; parameters: species or system rat; conditions: cumulative 5HT in dosing period, n = 5-6 rats
Procedure: Male Sprague-Dawley rats (250-320 g) were housed in groups of 4-5 under conditions of controlled temperature (21±2° C.) and humidity (55±10%) with free access to food and water (lights on 07.00-19.00). Rats were anaesthetised using chloral hydrate (400 mg/kg i.p.) and a single microdialysis probe (BASi type MD2200, 2 mm membrane, 30,000 dalton cut-off) implanted in the dorsal hippocampus using a stereotaxic frame at the following coordinates (rostro-caudal—4.5 mm; media-lateral—2.5 mm; dorso-ventral—4.5 mm from bregma and dura surface according to Paxinos & Watson 6) and fixed in position with dental cement. Body temperature was maintained at 36° C. using a heating pad and monitored via a digital rectal thermometer. The microdialysis probe was perfused with artificial cerebrospinal fluid (aCSF) at 1 μl/min and extracellular monoamine levels determined by collection of perfusate samples every 15 min and assayed using high-performance liquid chromatography (HPLC) with electrochemical detection.
The HPLC mobile phase (0.5 mM EDTA, 0.1M monochloroacetic acid pH 3.1, 0.15 g/L sodium octyl sulphate, 5% acetonitrile, 0.7% tetrahydrofuran) was pumped through the system at 70 μl/min. Monoamines were separated using a reverse-phase 1×100 mm ODS 3 mm microbore column with 5 μl injection loop and detected using a Epsilon electrochemical detector (BAST) with a glassy carbon electrode set at +650 mV versus Ag/AgCl reference electrode. Dialysate peaks were identified by comparing peak elution times with reference standards and quantified according to measurement of peak area using linear regression analysis. The detection limits for 5HT and SHIAA were defined as the sample amount producing a peak area twice that of the background noise per unit time and were approximately 0.1 fmol/sample in both cases. […]
For routine assay, two rats were prepared of which one was used to test the oregano extract and the other a control (vehicle) sample. […] Data from replicate studies for each compound are therefore expressed as % Basal level, as is normal practice for microdialysis studies. […]

mice [3] = experiment: Marble burying test; assay type: in vivo, mouse; conditions: for NUMBER OF MARBLES COVERED BY SAWDUST Mean ± s.e.m.: 25 marbles, 30-minute test, 15 mice
Procedure: The method applied here follows that described by Broekkamp et al. 1986, supra. Mice (n=15 per treatment group) were individually placed in transparent plastic cages (33×21×18 cm) with 5 cm of sawdust on the floor and 25 marbles (diameter 1 cm) grouped in the centre of the cage. A second, up-tamed, cage served as a lid. The number of marbles covered by sawdust (by at least two-thirds) was counted at the end of the 30-minute test period. Tests were performed by investigators blind to the drug treatment protocol.
Prior to testing, all test cages and marbles were “impregnated” by leaving 10 naive mice in each cage for 15 minutes.
Oregano extract 1 was evaluated at 10, 30 and 60 mg/kg, administered i.p. 30 minutes before the test, and compared with a vehicle control group. Oregano extract 1 was dissolved in a saline solution containing 3% (v/v) DMSO and 3% (v/v) Tween® 80 “vehicle”. The control group were administered vehicle in the same manner, while fluoxetine (32 mg/kg), administered under the same experimental conditions, was used as a reference substance. Data were analyzed by comparing treated groups with vehicle control using unpaired Student's t-tests.

mice [4] = experiment: Porsolt's Forced Swim Test (Behavioral Despair Test), i.p.; assay type: in vivo, mouse; conditions: 16 mg/kg i.p., −30 min, 15 mice
Procedure: The test, which detects antidepressant activity, was carried out as described by Porsolt et al supra. Mice which are forced to swim in a situation from which they cannot escape rapidly become immobile. Antidepressants decrease the duration of immobility.
Mice were individually placed in cylinders (Height=24 cm, Diameter=13 cm) containing 10 cm water (22° C.) from which they could not escape. The mice were placed in the water for 6 minutes and the duration of immobility during the last 4 minutes was measured.
15 mice were studied per each of the four groups.
Oregano extract 1 was evaluated at 3 doses (10, 30 and 60 mg/kg), administered i.p. 30 minutes before the test, and compared with a control group, administered vehicle in the same manner. The thus administered […] was dissolved in vehicle (saline solution containing 3% (v/v) DMSO and 3% (v/v) Tween® 80). Venlafaxine (16 mg/kg, i.p.), as comparison substance, and imipramine (32 mg/kg, i.p.), as reference compound, were administered under the same experimental conditions.
Data were analyzed by comparing the treated groups with the control group using unpaired Student's t tests and are presented in Table 3.

## Cc1ccc(C(C)C)cc1O [Carvacrol]
[1]; female rats, 0.5 h after single 800 mg/kg oregano extract 4 by oral gavage in corn oil
  Free Carvacrol (ng/mL) in plasma: 5120 ng/mL and 4090 ng/mL and 50100 ng/mL and 30.9 ng/mL
[1]; female rats, 1 h after single 800 mg/kg oregano extract 4 by oral gavage in corn oil
  Free Carvacrol (ng/mL) in plasma: 6050 ng/mL and 3610 ng/mL and 192 ng/mL
[1]; female rats, 2 h after single 800 mg/kg oregano extract 4 by oral gavage in corn oil
  Free Carvacrol (ng/mL) in plasma: 840 ng/mL and 1360 ng/mL and 64.3 ng/mL
[1]; female rats, 3 h after single 800 mg/kg oregano extract 4 by oral gavage in corn oil
  Free Carvacrol (ng/mL) in plasma: 228 ng/mL and 174 ng/mL
[1]; female rats, 4 h after single 800 mg/kg oregano extract 4 by oral gavage in corn oil
  Free Carvacrol (ng/mL) in plasma: 246 ng/mL and 102 ng/mL and 50.3 ng/mL
[1]; female rats, 6 h after single 800 mg/kg oregano extract 4 by oral gavage in corn oil
  Free Carvacrol (ng/mL) in plasma: 135 ng/mL and 91.9 ng/mL and 48.3 ng/mL
[1]; female rats, 8 h after single 800 mg/kg oregano extract 4 by oral gavage in corn oil
  Free Carvacrol (ng/mL) in plasma: 159 ng/mL and 1630 ng/mL and <LOQ = 10.0 ng/mL
[1]; female rats, 24 h after single 800 mg/kg oregano extract 4 by oral gavage in corn oil
  Free Carvacrol (ng/mL) in plasma: 127 ng/mL and 8.91 ng/mL and <LOQ = 10.0 ng/mL
[1]; female, rat, plasma, po, 800 mg/kg, Free Carvacrol (ng/mL) in plasma, female rats, 3 h after single 800 mg/kg oregano extract 4 by oral gavage in corn oil
  concentration at 3 h: 128 ng/mL
[1]; male rats, 0.5 h after single 800 mg/kg oregano extract 4 by oral gavage in corn oil
  Free Carvacrol (ng/mL) in plasma: 1530 ng/mL and 103 ng/mL and 55.9 ng/mL and 1320 ng/mL
[1]; male rats, 1 h after single 800 mg/kg oregano extract 4 by oral gavage in corn oil
  Free Carvacrol (ng/mL) in plasma: 1150 ng/mL and 1820 ng/mL
[1]; male rats, 2 h after single 800 mg/kg oregano extract 4 by oral gavage in corn oil
  Free Carvacrol (ng/mL) in plasma: 166 ng/mL and 584 ng/mL and 199 ng/mL
[1]; male rats, 3 h after single 800 mg/kg oregano extract 4 by oral gavage in corn oil
  Free Carvacrol (ng/mL) in plasma: 51.5 ng/mL and 58.4 ng/mL and 1580 ng/mL
[1]; male rats, 4 h after single 800 mg/kg oregano extract 4 by oral gavage in corn oil
  Free Carvacrol (ng/mL) in plasma: 30.4 ng/mL and 40 ng/mL and 316 ng/mL
[1]; male rats, 6 h after single 800 mg/kg oregano extract 4 by oral gavage in corn oil
  Free Carvacrol (ng/mL) in plasma: 83.4 ng/mL and 980 ng/mL and 100 ng/mL
[1]; male rats, 8 h after single 800 mg/kg oregano extract 4 by oral gavage in corn oil
  Free Carvacrol (ng/mL) in plasma: 156 ng/mL and 140 ng/mL
[1]; male rats, 24 h after single 800 mg/kg oregano extract 4 by oral gavage in corn oil
  Free Carvacrol (ng/mL) in plasma: <LOQ = 10.0 ng/mL
[1]; male, rat, plasma, po, 800 mg/kg, Free Carvacrol (ng/mL) in plasma, male rats, 1 h after single 800 mg/kg oregano extract 4 by oral gavage in corn oil
  concentration at 1 h: 1790 ng/mL
[1]; male, rat, plasma, po, 800 mg/kg, Free Carvacrol (ng/mL) in plasma, male rats, 8 h after single 800 mg/kg oregano extract 4 by oral gavage in corn oil
  concentration at 8 h: 185 ng/mL
[1]; male, rat, plasma, po, 800 mg/kg, Free Carvacrol (ng/mL) in plasma, male rats, 24 h after single 800 mg/kg oregano extract 4 by oral gavage in corn oil
  concentration at 24 h: 68.1 ng/mL

## CN1C(=O)CC(=O)N(c2ccccc2)c2cc(Cl)ccc21 [Clobazam]
mouse
  NUMBER OF CROSSINGS % change from control: +68%
  TIME SPENT IN LIGHT COMPARTMENT % change from control: +114%
  NUMBER OF CROSSINGS mean ± s.e.m.: 7.9 ± 0.9
  TIME SPENT IN LIGHT COMPARTMENT (s) mean ± s.e.m.: 118.4 ± 3.4 s

## CNCCC(Oc1ccc(C(F)(F)F)cc1)c1ccccc1 (stereo not drawn) [Fluoxetine]
[2]; 3 mg/kg i.p., injection 150 min post-surgery
  5-HT LEVEL (% basal) Mean ± s.e.m.: 85 ± 4 % basal
[2]; 10 mg/kg i.p., injection 210 min post-surgery
  5-HT LEVEL (% basal) Mean ± s.e.m.: 131 ± 9 % basal
[2]; 30 mg/kg i.p., injection 270 min post-surgery
  5-HT LEVEL (% basal) Mean ± s.e.m.: 160 ± 7 % basal
Mice [3]; 32 mg/kg i.p., −30 min
  NUMBER OF MARBLES COVERED BY SAWDUST % change from control: −93%
  NUMBER OF MARBLES COVERED BY SAWDUST Mean ± s.e.m.: 1.4 ± 1.0

## COc1ccc(C(CN(C)C)C2(O)CCCCC2)cc1 (stereo not drawn) [Venlafaxine]
mouse
  NUMBER OF CROSSINGS % change from control: −6%
  TIME SPENT IN LIGHT COMPARTMENT % change from control: 0%
  NUMBER OF CROSSINGS mean ± s.e.m.: 4.4 ± 0.9
  TIME SPENT IN LIGHT COMPARTMENT (s) mean ± s.e.m.: 55.2 ± 9.3 s
Mice [3]; 16 mg/kg i.p. −30 min
  NUMBER OF MARBLES COVERED BY SAWDUST % change from control: −98%
Mice [3]; 16 mg/kg i.p., −30 min
  NUMBER OF MARBLES COVERED BY SAWDUST Mean ± s.e.m.: 0.5 ± 0.3
Mice [3]; 16 mg/kg i.p., −30 min, listed as venlafaxine
  NUMBER OF MARBLES COVERED BY SAWDUST % change from control: −98%
Mice [4]
  DURATION OF IMMOBILITY % change from control: −51%
  DURATION OF IMMOBILITY (s) Mean ± s.e.m.: 80.1 ± 11.1 s
Mice [4]; listed as venlafaxine
  DURATION OF IMMOBILITY % change from control: −51%
